Results published in paper PMC6091245, “Genome-Wide Identification and Expression Analysis of Cutinase Gene Family in Rhizoctonia cerealis and Functional Study of an Active Cutinase RcCUT1 in the Fungal–Wheat Interaction” (Frontiers in Microbiology, 2018).

Biological target: T1, RcCUT1 (MBP-RcCUT1) (Ceratobasidium cereale, UniProt A0A346Q044)
T1 construct: E. coli BL21 (DE3); amylose resin; about 63 kDa on SDS-PAGE
Assay: spectrophotometric p-nitrophenol release at […] nm
Format: biochemical
Settings: 1 mM substrate; 20 mM Tris-HCl, 10 mM NaCl, 50 mM sodium taurodeoxycholate, pH 8.0, 20 °C; MBP-tag alone inactive

T1 sequence (A0A346Q044 entry or part of it): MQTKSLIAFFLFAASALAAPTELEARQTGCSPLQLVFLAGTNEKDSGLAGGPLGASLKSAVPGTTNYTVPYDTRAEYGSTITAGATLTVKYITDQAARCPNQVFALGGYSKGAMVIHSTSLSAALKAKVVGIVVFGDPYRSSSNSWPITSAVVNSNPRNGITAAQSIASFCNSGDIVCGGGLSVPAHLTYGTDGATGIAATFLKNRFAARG

How did the “spectrophotometric p-nitrophenol release at 405 nm” value turn out when `CCCC(=O)Oc1ccc([N+](=O)[O-])cc1` [p-nitrophenyl butyrate] was run?
Its value is “the purified MBP-RcCUT1 had the enzymatic activity for hydrolyzing pNPB substrate”.
